From PubChem BioAssay (NCI)
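A five-concentration, 48-hour dose response in 96-well plates underlies each endpoint, interpolated linearly between surrounding concentrations. GI50 is the concentration that inhibits growth by half. TGI marks complete inhibition of growth.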

Experiments:
Test in all cases: NCI anticancer screen, dose series, 48 h
786-0 renal = test system: 786-0 renal
A498 renal = test system: A498 renal
HOP-92 NSCLC = test system: HOP-92 NSCLC
IGROV1 ovarian = test system: IGROV1 ovarian
NCI-H522 lung = test system: NCI-H522 lung
RXF 393 renal = test system: RXF 393 renal
SN12C renal = test system: SN12C renal
SR leukemia = test system: SR leukemia
EKVX NSCLC = test system: EKVX NSCLC

Compound	TGI (786-0 renal) [µM]	TGI (A498 renal) [µM]	TGI (HOP-92 NSCLC) [µM]	TGI (IGROV1 ovarian) [µM]	TGI (NCI-H522 lung) [µM]	TGI (RXF 393 renal) [µM]	TGI (SN12C renal) [µM]	TGI (SR leukemia) [µM]	TGI (EKVX NSCLC) [µM]	GI50 (786-0 renal) [µM]	GI50 (A498 renal) [µM]	GI50 (EKVX NSCLC) [µM]	GI50 (HOP-92 NSCLC) [µM]	GI50 (IGROV1 ovarian) [µM]	GI50 (NCI-H522 lung) [µM]	GI50 (RXF 393 renal) [µM]	GI50 (SN12C renal) [µM]	GI50 (SR leukemia) [µM]
N#C/C(=C\c1ccc2ccccc2c1)c1ccccc1	41.3	76.4	> 100	37.3	29.6	65	> 100	> 100										
O=C(N/C(=C\c1cccc([N+](=O)[O-])c1)c1nc2ccc([N+](=O)[O-])cc2[nH]1)c1ccccc1	> 100		60.7	74.4	52.9	> 100	> 100	65.6	> 100									
NC12CC3CC(C1)CC(C(=O)O)(C3)C2	> 100	> 100	> 100	> 100	> 100		> 100	> 100	> 100									
Cc1ccc2c(c1)Sc1c(ccc3ccccc13)N2	> 100	> 100	> 100	> 100	> 100	> 100	> 100	> 100	> 100	> 100	83.9	> 100	7.07	6.48	> 100	> 100	> 100	4.4
N#CC(C#N)=C1Nc2ccccc2S1	> 100	55.5	18.1	> 100	> 100	> 100	> 100	51.9	> 100	41	26.6	34.7	2.59	35.9	32.4	36	38.2	25.6
CS(=O)(=O)c1ccc(-n2nc(C(F)(F)F)cc2OC2CCCC2)cc1	> 100	56.2	> 100	> 100	> 100	> 100	71.7	47.9	> 100	34	25.2	82.5	50.7	> 100	45.8	94.3	25.8	19.8
COCCCNC(=O)C1C(=O)C(=O)N(CCCOC)C1=O (stereo not drawn)	> 100	> 100	> 100	> 100	> 100		> 100	> 100	> 100									
CCCCCCCC(=O)OCC/C=C/C1OC1C1OC(=O)/C=C\C=C\c2nc(oc2C)/C=C(/C)CCC2OC2C1OC(=O)NC(C)=O (stereo not drawn)	0.203	0.00927	0.168	0.918	0.0755	0.0562	0.554	0.89	1.64	0.033	0.00368	0.0419	0.0283	0.0262	0.0192	0.0184	0.0491	0.0173
CC(=O)OCC1OC(NC(=S)N/N=C2\CC(c3ccccc3)Oc3ccccc32)C(OC(C)=O)C(OC(C)=O)C1OC(C)=O (stereo not drawn)	> 100	> 100	> 100	> 100	> 100	> 100	> 100	> 100	> 100									
CCOC(=O)/C(=C\c1ccccc1)C(=O)O	> 100	> 100	> 100	> 100	> 100		> 100	> 100	> 100									
COc1ccc2c(c1)CCCN2c1c2ccccc2nc2ccccc12	9.3	0.808	6.46	34.7	16.2	0.786	> 100	> 100	> 100	0.549	0.269	0.932	0.683	0.811	0.384	0.27	0.73	0.383
CCOC(=S)SSSC(=S)OCC	28.5	> 100	> 100			> 100	70	42.1	> 100									
COc1cc(Nc2nc3ccccc3nc2-c2cccs2)cc(OC)c1OC	> 100		83.9			> 100	> 100	> 100	> 100									
COc1ccc(-c2onc(N)c2-c2cc(OC)c3c(c2)OCO3)cc1	> 100	10.9	> 100	> 100	5.39	19	> 100	> 100	> 100	7.24	1.5	6.58	4.98	8.44	1.07	2.71	4.26	0.534
O=C(Nc1ccncc1)C(=O)c1cn(S(=O)(=O)c2cccc(F)c2)c2ccccc12	> 100	97		> 100	15.7	66.8	> 100	> 100	> 100	3.64	13.4	4.17		8.33	1.3	8.88	5.25	0.552
O=[N+]([O-])c1ccc(C=NC2CCCCC2)cc1	> 100	> 100	> 100	> 100		> 100	> 100	> 100	> 100									
O=C(O)/C=C(\c1nc2ccc([N+](=O)[O-])cc2[nH]1)c1cc(Cl)ccc1O	28.3	8.7	5.35	39.5	5.03	21.2	33.8	18.5	28.2	3.77	2.46	2.44	0.711	2.92	1.17	3.55	2.71	3.23
Cc1cc2c(cc1Cl)SC1=NN(C)S(=O)N1S2(=O)=O (stereo not drawn)	> 100	> 100	87	> 100	> 100		> 100	> 100	> 100	> 100	99.5	> 100	25.5	> 100	> 100		> 100	> 100
